Biological target: T1, AMPA receptor (human GluR1 flip/stargazin expressed in CHO-K1 cells) (Homo sapiens, UniProt P42261)
T1 construct: expressed in transfected cells; host or cells: CHO-K1
Assay: AMPA receptor function enhancing activity using calcium influx as index
Type: cell-based
Conditions: test compound 30 μM with glutamic acid final 3 mM, change in fluorescence in 3 min, 100% = 3 mM glutamic acid + 300 μM cyclothiazide, 0% = 3 mM glutamic acid only
From the text: Human GluR1 flip cDNA was amplified by PCR using forward primer […] (SEQ ID NO: 1) and reverse primer […] (SEQ ID NO: 2) artificially synthesized using human brain-derived cDNA (BD Bio science) as a template. The amplified product was digested with restriction enzymes EcoRI, NotI (TAKARA SHUZO CO. LTD.), and incorporated into the same site of pcDNA3.1(+) (Invitrogen) to construct pcDNA3.1(+)/human GluR1 flip gene. Human stargazin cDNA was amplified by PCR using forward primer […] (SEQ ID NO: 3) and reverse primer […] (SEQ ID NO: 4) artificially synthesized using human hippocampus cDNA as a template. The amplified product was digested with restriction enzymes XhoI, BamHI (TAKARA SHUZO CO. LTD.), and incorporated into the same site of pcDNA3.1(−) (Invitrogen) to construct pcDNA3.1 Zeo(−)/human stargazin gene.
CHO-K1 cells passaged in a culture medium (Ham's F12 medium (Invitrogen) added with 10% inactivated fetal bovine serum (Morgate) and penicillin, streptomycin (Invitrogen)) were detached with 0.05% trypsin, 0.53 mM EDTA (Invitrogen) diluted with D-PBS(−). The detached cells were suspended in a culture medium, and recovered by a centrifugation operation at 1,000 rpm. The recovered cells were suspended again in D-PBS(−), and added to a 0.4 cm electroporation cuvette (BioRad). pcDNA3.1(+)/human GluR1 flip gene (5 μg) and pcDNA3.1 Zeo(−)/human stargazin gene (15 μg) were added, and the mixture was introduced into CHO-K1 cells using Gene Pulser II (BioRad) under the conditions of 950 μFd, […]. The introduced cells were cultured overnight in a culture medium and, the next day, plated in a 96 well plate at 250 cells/well using a selection medium (culture medium added with Zeocin (Invitrogen) to 250 μg/mL). Clones showing drug resistance were selected, and GluR1 flip/stargazin expressing clones were selected by an assay method using calcium influx as an index as shown below.
CHO-K1/GluR1 flip/stargazin expressing cells were plated on a 96 well black transparent bottom plate (Costar) at 2×10^4 cells/well, and cultured in a 37° C., CO2 incubator (SANYO Electric Co., Ltd.) for 2 days. The medium in the cell plate was removed, and assay buffer A (D-MEM (Invitrogen), 0.1% BSA (Serogical Protein), 20 mM HEPES (Invitrogen)) was added at 50 μL/well. A calcium indicator (Calcium 4 Assay Kit, Invitrogen) added with 2.5 mM probenecid (Invitrogen) was added at 50 μL/well and the well was left standing in 37° C., CO2 incubator for 1 hr. The cell plate was set in CellLux (PerkinElmer), a mixture (50 μL) of 9 mM glutamic acid diluted with assay buffer B (HBSS (Invitrogen), 0.1% BSA, 20 mM HEPES) (final concentration 3 mM) and a test compound (test compound concentration 30 μM) was added, and the amount of change in fluorescence level in 3 min was measured. In the definition here, the amount of change in fluorescence level of well added with glutamic acid at final concentration 3 mM and 300 μM cyclothiazide (TOCRIS) is 100%, the amount of change in fluorescence level of well added only with glutamic acid at final concentration 3 mM is 0%, and the compound activity was calculated according to the following formula. activity(%)=(X−C)/(T−C)×100 T: amount of change in fluorescence level of well added with glutamic acid at final concentration 3 mM and 300 μM cyclothiazide C: amount of change in fluorescence level of well added only with glutamic acid at final concentration 3 mM X: amount of change in fluorescence level of well added with test compound

T1 sequence (P42261 19-906 isoform P42261-2 limits assumed): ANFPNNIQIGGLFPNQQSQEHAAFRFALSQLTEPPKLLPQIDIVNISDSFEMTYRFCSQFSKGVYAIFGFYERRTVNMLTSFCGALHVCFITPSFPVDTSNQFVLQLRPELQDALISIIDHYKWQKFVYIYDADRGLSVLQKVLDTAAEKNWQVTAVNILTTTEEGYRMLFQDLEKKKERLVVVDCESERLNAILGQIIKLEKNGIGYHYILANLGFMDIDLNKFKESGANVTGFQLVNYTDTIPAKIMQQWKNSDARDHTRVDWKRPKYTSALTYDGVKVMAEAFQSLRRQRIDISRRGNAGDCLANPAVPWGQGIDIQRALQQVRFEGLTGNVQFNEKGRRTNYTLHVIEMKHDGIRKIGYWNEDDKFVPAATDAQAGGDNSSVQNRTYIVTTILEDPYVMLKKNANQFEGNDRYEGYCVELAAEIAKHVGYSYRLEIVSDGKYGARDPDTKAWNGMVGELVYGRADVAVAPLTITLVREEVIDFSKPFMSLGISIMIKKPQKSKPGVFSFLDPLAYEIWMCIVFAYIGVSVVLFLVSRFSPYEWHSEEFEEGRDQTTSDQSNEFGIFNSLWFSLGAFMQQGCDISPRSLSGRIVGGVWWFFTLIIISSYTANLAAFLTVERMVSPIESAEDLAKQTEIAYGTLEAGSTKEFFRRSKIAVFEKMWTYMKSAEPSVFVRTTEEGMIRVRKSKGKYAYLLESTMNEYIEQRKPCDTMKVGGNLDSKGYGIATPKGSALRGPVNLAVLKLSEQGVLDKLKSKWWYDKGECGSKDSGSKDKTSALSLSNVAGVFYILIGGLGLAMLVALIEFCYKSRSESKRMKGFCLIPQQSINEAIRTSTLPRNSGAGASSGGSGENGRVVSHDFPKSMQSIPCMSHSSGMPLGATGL
T1 sequence (Q9Y698 whole entry partner): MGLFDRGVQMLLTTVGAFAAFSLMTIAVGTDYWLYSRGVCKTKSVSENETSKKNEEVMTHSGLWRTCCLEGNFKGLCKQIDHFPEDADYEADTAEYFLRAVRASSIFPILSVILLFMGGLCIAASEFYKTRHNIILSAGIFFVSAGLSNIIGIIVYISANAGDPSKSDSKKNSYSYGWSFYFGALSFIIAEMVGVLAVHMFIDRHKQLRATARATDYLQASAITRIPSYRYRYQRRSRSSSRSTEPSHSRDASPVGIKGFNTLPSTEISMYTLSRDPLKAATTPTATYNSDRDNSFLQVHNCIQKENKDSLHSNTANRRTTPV

| Structure (SMILES) | activity (%) |
| --- | --- |
| COc1cccc(Oc2ccc(C3CCCN4CCS(=O)(=O)N=C34)cc2)c1 (stereo not shown) [Example 98, 9-[4-(3-methoxyphenoxy)phenyl]-3,4,6,7,8,9-hexahydropyrido[2,1-c][1,2,4]thiadiazine 2,2-dioxide] | 71% |
| CC1CC(c2ccc(Oc3ccccc3)cc2)C2=NS(=O)(=O)CCN2C1 (stereo not shown) [Example 99, 7-methyl-9-(4-phenoxyphenyl)-3,4,6,7,8,9-hexahydropyrido[2,1-c][1,2,4]thiadiazine 2,2-dioxide] | 73% |
| Cc1cc(C2=CC=CN3CCS(=O)(=O)N=C23)ccc1-c1ccccc1 [Example 101, 9-(2-methylbiphenyl-4-yl)-3,4-dihydropyrido[2,1-c][1,2,4]thiadiazine 2,2-dioxide] | 84% |
| Cc1cc(C2CCCN3CCS(=O)(=O)N=C23)ccc1-c1ccccc1 (stereo not shown) [Example 102, 9-(2-methylbiphenyl-4-yl)-3,4,6,7,8,9-hexahydropyrido[2,1-c][1,2,4]thiadiazine 2,2-dioxide] | 71% |
| Cc1cc(C2CCCN3CCS(=O)(=O)N=C23)ccc1-c1ccccc1 (stereo not shown) [Example 103, 9-(2-methylbiphenyl-4-yl)-3,4,6,7,8,9-hexahydropyrido[2,1-c][1,2,4]thiadiazine 2,2-dioxide] | 81% |
| Cc1ccc(-c2ccc(C3CCCN4CCS(=O)(=O)N=C34)cc2)cc1 (stereo not shown) [Example 105, 9-(4′-methylbiphenyl-4-yl)-3,4,6,7,8,9-hexahydropyrido[2,1-c][1,2,4]thiadiazine 2,2-dioxide] | 87% |
| COc1cccc(-c2ccc(C3CCCN4CCS(=O)(=O)N=C34)cc2)c1 (stereo not shown) [Example 106, 9-(3′-methoxybiphenyl-4-yl)-3,4,6,7,8,9-hexahydropyrido[2,1-c][1,2,4]thiadiazine 2,2-dioxide] | 98% |
| Cc1ccc(Oc2ccc(C3CCCN4CCS(=O)(=O)N=C34)cc2)cc1 (stereo not shown) [Example 108, 9-[4-(4-methylphenoxy)phenyl]-3,4,6,7,8,9-hexahydropyrido[2,1-c][1,2,4]thiadiazine 2,2-dioxide] | 68% |
| Cc1ccc(Oc2ccc(C3CCCN4CCS(=O)(=O)N=C34)cc2)cc1 (stereo not shown) [Example 109, 9-[4-(4-methylphenoxy)phenyl]-3,4,6,7,8,9-hexahydropyrido[2,1-c][1,2,4]thiadiazine 2,2-dioxide] | 88% |
| Cc1cc(Oc2ccc(C3=CC=CN4CCS(=O)(=O)N=C34)cc2)ccc1F [Example 111, 9-[4-(4-fluoro-3-methylphenoxy)phenyl]-3,4-dihydropyrido[2,1-c][1,2,4]thiadiazine 2,2-dioxide] | 58% |
| Cc1cc(Oc2ccc(C3CCCN4CCS(=O)(=O)N=C34)cc2)ccc1F (stereo not shown) [Example 112, 9-[4-(4-fluoro-3-methylphenoxy)phenyl]-3,4,6,7,8,9-hexahydropyrido[2,1-c][1,2,4]thiadiazine 2,2-dioxide] | 79% |
| Cc1cc(Oc2ccc(C3CCCN4CCS(=O)(=O)N=C34)cc2)ccc1F (stereo not shown) [Example 113, 9-[4-(4-fluoro-3-methylphenoxy)phenyl]-3,4,6,7,8,9-hexahydropyrido[2,1-c][1,2,4]thiadiazine 2,2-dioxide] | 86% |
| Cc1ccccc1Oc1ccc(C2=CC=CN3CCS(=O)(=O)N=C23)cc1 [Example 115, 9-[4-(2-methylphenoxy)phenyl]-3,4-dihydropyrido[2,1-c][1,2,4]thiadiazine 2,2-dioxide] | 80% |
| Cc1ccccc1Oc1ccc(C2CCCN3CCS(=O)(=O)N=C23)cc1 (stereo not shown) [Example 116, 9-[4-(2-methylphenoxy)phenyl]-3,4,6,7,8,9-hexahydropyrido[2,1-c][1,2,4]thiadiazine 2,2-dioxide] | 69% |
| Cc1cccc(Oc2ccc(C3=CC=CN4CCS(=O)(=O)N=C34)cc2)c1 [Example 117, 9-[4-(3-methylphenoxy)phenyl]-3,4-dihydropyrido[2,1-c][1,2,4]thiadiazine 2,2-dioxide] | 90% |
| Cc1cccc(Oc2ccc(C3CCCN4CCS(=O)(=O)N=C34)cc2)c1 (stereo not shown) [Example 118, 9-[4-(3-methylphenoxy)phenyl]-3,4,6,7,8,9-hexahydropyrido[2,1-c][1,2,4]thiadiazine 2,2-dioxide] | 79% |
| Cc1cccc(Oc2ccc(C3CCCN4CCS(=O)(=O)N=C34)cc2)c1 (stereo not shown) [Example 119, 9-[4-(3-methylphenoxy)phenyl]-3,4,6,7,8,9-hexahydropyrido[2,1-c][1,2,4]thiadiazine 2,2-dioxide] | 92% |
| Cc1cc(C(F)(F)F)ccc1Oc1ccc(C2=CC=CN3CCS(=O)(=O)N=C23)cc1 [Example 121, 9-{4-[2-methyl-4-(trifluoromethyl)phenoxy]phenyl}-3,4-dihydropyrido[2,1-c][1,2,4]thiadiazine 2,2-dioxide] | 71% |
| Cc1cc(C(F)(F)F)ccc1Oc1ccc(C2CCCN3CCS(=O)(=O)N=C23)cc1 (stereo not shown) [Example 122, 9-{4-[2-methyl-4-(trifluoromethyl)phenoxy]phenyl}-3,4,6,7,8,9-hexahydropyrido[2,1-c][1,2,4]thiadiazine 2,2-dioxide] | 58% |
| Cc1cc(C(F)(F)F)ccc1Oc1ccc(C2CCCN3CCS(=O)(=O)N=C23)cc1 (stereo not shown) [Example 123, 9-{4-[2-methyl-4-(trifluoromethyl)phenoxy]phenyl}-3,4,6,7,8,9-hexahydropyrido[2,1-c][1,2,4]thiadiazine 2,2-dioxide] | 57% |
| COc1ccc2cc(C3=CC=CN4CCS(=O)(=O)N=C34)ccc2c1 [Example 126, 9-(6-methoxynaphthalen-2-yl)-3,4-dihydropyrido[2,1-c][1,2,4]thiadiazine 2,2-dioxide] | 72% |
| COc1ccc2cc(C3CCCN4CCS(=O)(=O)N=C34)ccc2c1 (stereo not shown) [Example 127, 9-(6-methoxynaphthalen-2-yl)-3,4,6,7,8,9-hexahydropyrido[2,1-c][1,2,4]thiadiazine 2,2-dioxide] | 79% |
| COc1ccc2cc(C3CCCN4CCS(=O)(=O)N=C34)ccc2c1 (stereo not shown) [Example 128, 9-(6-methoxynaphthalen-2-yl)-3,4,6,7,8,9-hexahydropyrido[2,1-c][1,2,4]thiadiazine 2,2-dioxide] | 98% |
| COc1ccc2cc(C3CCCN4CCS(=O)(=O)N=C34)ccc2c1 (stereo not shown) [Example 129, 9-(6-methoxynaphthalen-2-yl)-3,4,6,7,8,9-hexahydropyrido[2,1-c][1,2,4]thiadiazine 2,2-dioxide] | 100% |
| CCc1cccc(Oc2ccc(C3=CC=CN4CCS(=O)(=O)N=C34)cc2)c1 [Example 130, 9-[4-(3-ethylphenoxy)phenyl]-3,4-dihydropyrido[2,1-c][1,2,4]thiadiazine 2,2-dioxide] | 69% |
| CCc1cccc(Oc2ccc(C3CCCN4CCS(=O)(=O)N=C34)cc2)c1 (stereo not shown) [Example 131, 9-[4-(3-ethylphenoxy)phenyl]-3,4,6,7,8,9-hexahydropyrido[2,1-c][1,2,4]thiadiazine 2,2-dioxide] | 58% |
| CCc1cccc(Oc2ccc(C3CCCN4CCS(=O)(=O)N=C34)cc2)c1 (stereo not shown) [Example 132, 9-[4-(3-ethylphenoxy)phenyl]-3,4,6,7,8,9-hexahydropyrido[2,1-c][1,2,4]thiadiazine 2,2-dioxide] | 75% |
| Cc1ccc(Oc2ccc(C3=CC=CN4CCS(=O)(=O)N=C34)cc2)cc1C [Example 134, 9-[4-(3,4-dimethylphenoxy)phenyl]-3,4-dihydropyrido[2,1-c][1,2,4]thiadiazine 2,2-dioxide] | 77% |

Source: patent US8916551B2, “Heterocyclic compound and use thereof” (Takeda Pharmaceutical Company Limited, priority 2010, dated 2014)
